Measured values from US7179830B2, “Substituted thienoimidazoles useful for disease treatment and prevention” (Sanofi-aventis Deutschland GmbH, priority 2003, dated 2007).
Counter-ions that a name gives are not always drawn.

How the values were obtained:
Assay type in all cases: cell-based
NHE3 = biological target: T1, NHE3 (Homo sapiens, UniProt P48764); experiment: Determination of the NHE inhibition: recovery of intracellular pH after acidification (BCECF fluorescence), NHE3; conditions: for IC50: pH recovery registered at three minutes
T1 construct: host or cells: cells, not specified
T1 sequence (P48764 26-834): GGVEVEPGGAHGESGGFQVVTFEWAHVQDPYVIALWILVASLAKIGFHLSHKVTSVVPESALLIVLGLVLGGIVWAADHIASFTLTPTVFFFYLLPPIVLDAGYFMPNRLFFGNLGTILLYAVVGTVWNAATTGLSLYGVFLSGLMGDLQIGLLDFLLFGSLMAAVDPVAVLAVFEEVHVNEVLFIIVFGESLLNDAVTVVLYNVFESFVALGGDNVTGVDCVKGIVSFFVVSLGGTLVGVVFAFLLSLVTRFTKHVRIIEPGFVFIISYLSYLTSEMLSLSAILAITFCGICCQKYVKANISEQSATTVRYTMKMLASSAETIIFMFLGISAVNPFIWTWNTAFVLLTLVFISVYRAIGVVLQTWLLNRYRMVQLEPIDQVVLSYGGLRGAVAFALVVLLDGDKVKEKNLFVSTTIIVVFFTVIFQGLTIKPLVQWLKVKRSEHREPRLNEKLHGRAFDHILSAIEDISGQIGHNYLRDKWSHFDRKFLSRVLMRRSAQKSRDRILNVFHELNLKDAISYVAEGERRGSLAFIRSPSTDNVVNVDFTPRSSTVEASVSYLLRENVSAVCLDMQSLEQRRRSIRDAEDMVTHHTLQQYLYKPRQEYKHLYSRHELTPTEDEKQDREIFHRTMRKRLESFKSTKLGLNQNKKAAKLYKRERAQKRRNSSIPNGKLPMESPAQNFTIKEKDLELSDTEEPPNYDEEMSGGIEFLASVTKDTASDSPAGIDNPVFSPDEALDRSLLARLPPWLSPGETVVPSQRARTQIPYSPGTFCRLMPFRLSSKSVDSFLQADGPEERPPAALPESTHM
Description: [drawing 14] is obtained by adding saturated sodium hydrogencarbonate solution to a suspension of 306 mg of 2-(2-chloro-4-methyl-3-thienylamino)-1H-thieno[3,4-d]imidazole hydrochloride (example 5) in 40 ml of water, in the course of which a pH of 10 is established. After the suspension had been stirred at room temperature for 1 hour, the solid was filtered off and washed repeatedly with water, and the product was dried in an air stream. Colorless crystalline product, decomposition point from 180° C. Pharmacological Data: Determination of the NHE Inhibition Test Description:
This test determined the recovery of the intracellular pH (pHi) after acidification, and this recovery occurs in the case of functional NHE even under bicarbonate-free conditions. To this end, the pHi was determined using the pH-sensitive fluorescent dye BCECF (Calbiochem, the BCECF-AM precursor is used). The cells were initially loaded with BCECF. The BCECF fluorescence was determined in a Ratio Fluorescence Spectrometer (Photon Technology International, South Brunswick, N.J., USA) at excitation wavelengths of 505 and 440 nm and an emission wavelength of 535 nm and converted to the pHi by means of calibration curves. The cells had already been incubated in NH4Cl buffer (pH 7.4) in the course of the BCECF loading (NH4Cl buffer: 115 mM NaCl, 20 mM NH4Cl, 5 mM KCl, 1 mM CaCl2, 1 mM MgSO4, 20 mM Hepes, 5 mM glucose, 1 mg/ml BSA; a pH of 7.4 is established using 1 M NaOH). The intracellular acidification is induced by adding 975 μl of an NH4Cl-free buffer (see below) to 25 μl aliquots of the cells incubated in NH4Cl buffer. The subsequent rate of the pH recovery was registered at two minutes for NHE1, at five minutes for NHE2 and at three minutes for NHE3. For the calculation of the inhibitory potency of the tested substances, the cells were initially investigated in buffers in which complete or absolutely no pH recovery took place. For complete pH recovery (100%), the cells were incubated in Na^+-containing buffer (133.8 mM NaCl, 4.7 mM KCl, 1.25 mM CaCl2, 1.25 mM MgCl2, 0.97 mM Na2HPO4, 0.23 mM NaH2PO4, 5 mM Hepes, 5 mM glucose, a pH of 7.0 is established using 1 M NaOH). For the determination of the 0% value, the cells were incubated in an Na^+-free buffer (133.8 mM choline chloride, 4.7 mM KCl, 1.25 mM CaCl2, 1.25 mM MgCl2, 0.97 mM K2HPO4, 0.23 mM KH2PO4, 5 mM Hepes, 5 mM glucose, a pH of 7.0 is established using 1 M KOH). The substances to be tested were made up in the Na^+-containing buffer. The recovery of the intracellular pH at each tested concentration of a substance was expressed in percent of the maximum recovery. The percentages of the pH recovery were used to calculate the IC50 value of the particular substance for the individual NHE subtypes by means of the program Sigma-Plot.

NHE1 = NHE1 (Homo sapiens, UniProt P19634); experiment: NHE inhibition, NHE1 subtype; conditions: in a therapeutically utilizable concentration range
NHE1, sequence (P19634 whole entry, species assumed): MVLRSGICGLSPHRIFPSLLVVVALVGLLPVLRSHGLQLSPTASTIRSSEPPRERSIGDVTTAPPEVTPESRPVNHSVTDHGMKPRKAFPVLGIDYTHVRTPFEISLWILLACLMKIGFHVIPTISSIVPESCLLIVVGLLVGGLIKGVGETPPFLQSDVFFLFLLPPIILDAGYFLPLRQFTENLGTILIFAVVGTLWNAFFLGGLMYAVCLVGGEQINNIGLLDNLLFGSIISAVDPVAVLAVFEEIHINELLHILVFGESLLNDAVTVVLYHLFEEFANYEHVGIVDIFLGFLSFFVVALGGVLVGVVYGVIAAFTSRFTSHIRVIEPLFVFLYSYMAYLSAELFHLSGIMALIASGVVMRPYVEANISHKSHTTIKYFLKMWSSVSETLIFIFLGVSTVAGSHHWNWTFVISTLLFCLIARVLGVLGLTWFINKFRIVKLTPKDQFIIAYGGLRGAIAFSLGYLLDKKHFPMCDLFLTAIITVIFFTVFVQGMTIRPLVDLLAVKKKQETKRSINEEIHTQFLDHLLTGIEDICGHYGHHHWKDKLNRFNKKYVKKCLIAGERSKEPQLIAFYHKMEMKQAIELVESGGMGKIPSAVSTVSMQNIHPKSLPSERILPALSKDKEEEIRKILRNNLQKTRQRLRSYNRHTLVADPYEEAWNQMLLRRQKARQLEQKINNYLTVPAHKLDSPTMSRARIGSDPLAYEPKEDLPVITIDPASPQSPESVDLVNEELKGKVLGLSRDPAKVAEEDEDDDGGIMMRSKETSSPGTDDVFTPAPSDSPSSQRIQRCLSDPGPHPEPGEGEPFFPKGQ
Description: (§1) This test determined the recovery of the intracellular pH (pHi) after acidification, and this recovery occurs in the case of functional NHE even under bicarbonate-free conditions. To this end, the pHi was determined using the pH-sensitive fluorescent dye BCECF (Calbiochem, the BCECF-AM precursor is used). The cells were initially loaded with BCECF. The BCECF fluorescence was determined in a Ratio Fluorescence Spectrometer (Photon Technology International, South Brunswick, N.J., USA) at excitation wavelengths of 505 and 440 nm and an emission wavelength of 535 nm and converted to the pHi by means of calibration curves. The cells had already been incubated in NH4Cl buffer (pH 7.4) in the course of the BCECF loading (NH4Cl buffer: 115 mM NaCl, 20 mM NH4Cl, 5 mM KCl, 1 mM CaCl2, 1 mM MgSO4, 20 mM Hepes, 5 mM glucose, 1 mg/ml BSA; a pH of 7.4 is established using 1 M NaOH). The intracellular acidification is induced by adding 975 μl of an NH4Cl-free buffer (see below) to 25 μl aliquots of the cells incubated in NH4Cl buffer. The subsequent rate of the pH recovery was registered at two minutes for NHE1, at five minutes for NHE2 and at three minutes for NHE3. For the calculation of the inhibitory potency of the tested substances, the cells were initially investigated in buffers in which complete or absolutely no pH recovery took place. […]

NHE5 = biological target: T2, NHE5 (Homo sapiens, UniProt Q14940); experiment: NHE inhibition, NHE5 subtype; conditions: in a therapeutically utilizable concentration range
T2 sequence (Q14940 1-896): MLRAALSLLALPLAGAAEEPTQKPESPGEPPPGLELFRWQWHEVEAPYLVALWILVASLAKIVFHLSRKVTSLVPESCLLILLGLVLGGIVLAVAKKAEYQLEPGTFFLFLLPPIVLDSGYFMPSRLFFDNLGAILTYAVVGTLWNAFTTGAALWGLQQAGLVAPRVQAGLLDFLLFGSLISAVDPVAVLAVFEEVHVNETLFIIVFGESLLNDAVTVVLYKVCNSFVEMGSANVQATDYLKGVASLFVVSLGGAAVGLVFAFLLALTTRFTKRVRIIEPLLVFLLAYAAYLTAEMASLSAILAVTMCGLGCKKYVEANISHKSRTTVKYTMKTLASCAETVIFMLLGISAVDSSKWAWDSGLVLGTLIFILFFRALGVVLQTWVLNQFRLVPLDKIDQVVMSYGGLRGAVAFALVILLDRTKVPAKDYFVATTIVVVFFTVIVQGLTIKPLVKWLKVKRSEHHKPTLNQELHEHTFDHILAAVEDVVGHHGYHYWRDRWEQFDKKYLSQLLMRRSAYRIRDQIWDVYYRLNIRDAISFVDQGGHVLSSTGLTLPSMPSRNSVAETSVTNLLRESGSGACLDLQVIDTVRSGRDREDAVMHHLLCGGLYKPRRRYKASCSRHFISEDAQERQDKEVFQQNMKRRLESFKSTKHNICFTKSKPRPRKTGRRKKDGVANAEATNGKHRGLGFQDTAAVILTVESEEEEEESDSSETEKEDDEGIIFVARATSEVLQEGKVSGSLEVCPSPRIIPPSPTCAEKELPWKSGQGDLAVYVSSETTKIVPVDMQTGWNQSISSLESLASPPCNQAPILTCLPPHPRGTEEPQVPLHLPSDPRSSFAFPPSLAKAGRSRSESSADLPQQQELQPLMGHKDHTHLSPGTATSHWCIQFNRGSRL

NHE2 = biological target: T3, NHE2 (Homo sapiens, UniProt Q9UBY0); experiment: NHE inhibition, NHE2 subtype; conditions: in a therapeutically utilizable concentration range
T3 sequence (Q9UBY0 1-812): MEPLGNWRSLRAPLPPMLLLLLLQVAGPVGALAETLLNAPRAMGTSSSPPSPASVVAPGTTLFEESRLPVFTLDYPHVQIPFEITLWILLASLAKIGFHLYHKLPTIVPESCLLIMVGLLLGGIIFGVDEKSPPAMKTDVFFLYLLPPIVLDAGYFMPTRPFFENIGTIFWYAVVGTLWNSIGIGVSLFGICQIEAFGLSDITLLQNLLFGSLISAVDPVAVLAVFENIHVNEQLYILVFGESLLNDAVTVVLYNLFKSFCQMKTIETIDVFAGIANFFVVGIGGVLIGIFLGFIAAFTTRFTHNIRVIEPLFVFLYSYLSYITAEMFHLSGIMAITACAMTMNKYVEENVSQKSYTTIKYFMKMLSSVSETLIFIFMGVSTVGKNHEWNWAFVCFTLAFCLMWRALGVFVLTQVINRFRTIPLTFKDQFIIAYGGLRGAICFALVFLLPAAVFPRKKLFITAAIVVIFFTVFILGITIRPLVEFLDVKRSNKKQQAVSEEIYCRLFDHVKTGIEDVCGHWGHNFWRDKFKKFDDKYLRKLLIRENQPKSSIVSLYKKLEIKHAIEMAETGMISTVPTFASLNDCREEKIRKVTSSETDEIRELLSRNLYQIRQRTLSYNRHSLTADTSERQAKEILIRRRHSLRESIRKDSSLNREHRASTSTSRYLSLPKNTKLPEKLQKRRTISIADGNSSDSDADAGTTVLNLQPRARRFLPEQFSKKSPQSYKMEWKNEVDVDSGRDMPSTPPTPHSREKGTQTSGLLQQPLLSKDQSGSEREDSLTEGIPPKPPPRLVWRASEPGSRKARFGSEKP
Description: as §1

Q: With `Clc1cccc(Cl)c1Nc1nc2cscc2[nH]1` [Example 2, 2-(2,6-Dichlorophenylamino)-1H-thieno[3,4-d]imidazole hydrochloride] as the compound, how does the IC50 (NHE3) read?
A: 220 nM

Q: `Cc1csc(Cl)c1Nc1nc2cscc2[nH]1` [Example 5, 2-(2-Chloro-4-methyl-3-thienylamino)-1H-thieno[3,4-d]imidazole hydrochloride] was tested. Which IC50 (NHE3) did it give?
A: 150 nM

Q: Which IC50 (NHE3) does the source give for `FC(F)(F)c1ccccc1Nc1nc2cscc2[nH]1` [Example 6, 2-(2-Trifluoromethylphenylamino)-1H-thieno[3,4-d]imidazole hydrochloride] here?
A: 6510 nM

Q: How did the IC50 (NHE3) turn out when `Cc1cccc(Cl)c1Nc1nc2cscc2[nH]1` [Example 9, 2-(2-Chloro-6-methylphenylamino)-1H-thieno[3,4-d]imidazole hydrochloride] was run?
A: 1430 nM

Q: For `Clc1csc(Cl)c1Nc1nc2cscc2[nH]1` [Example 10, 2-(2,4-Dichloro-3-thienylamino)-1H-thieno[3,4-d]imidazole hydrochloride], which IC50 (NHE3) is on record?
A: 320 nM

Q: With `Cc1csc(Cl)c1NC1=NCCN1` [tiamenidine] as the compound, how does the “inhibitory action on NHE1” value (NHE1) read?
A: no relevant inhibitory actions

Q: What about the “inhibitory action on NHE3” value (NHE3; in a therapeutically utilizable concentration range) of the same compound?
A: no relevant inhibitory actions

Q: What about the “inhibitory action on NHE5” value (NHE5) of the same compound?
A: no relevant inhibitory actions

Q: What about the “inhibitory action on NHE2” value (NHE2) of the same compound?
A: no relevant inhibitory actions
